Laboratory results: patent US20210115040A1, “OGA INHIBITOR COMPOUNDS” (Janssen Pharmaceutica NV, priority 2018, published 2021)

Target: T1, recombinant human Meningioma Expressed Antigen 5 (MGEA5), also referred to as O-GlcNAcase (OGA) (Homo sapiens, UniProt O60502)
T1 construct: Full length OGA enzyme was purchased at OriGene (cat #TP322411); purchased OriGene TP322411
T1 sequence (O60502 1-916): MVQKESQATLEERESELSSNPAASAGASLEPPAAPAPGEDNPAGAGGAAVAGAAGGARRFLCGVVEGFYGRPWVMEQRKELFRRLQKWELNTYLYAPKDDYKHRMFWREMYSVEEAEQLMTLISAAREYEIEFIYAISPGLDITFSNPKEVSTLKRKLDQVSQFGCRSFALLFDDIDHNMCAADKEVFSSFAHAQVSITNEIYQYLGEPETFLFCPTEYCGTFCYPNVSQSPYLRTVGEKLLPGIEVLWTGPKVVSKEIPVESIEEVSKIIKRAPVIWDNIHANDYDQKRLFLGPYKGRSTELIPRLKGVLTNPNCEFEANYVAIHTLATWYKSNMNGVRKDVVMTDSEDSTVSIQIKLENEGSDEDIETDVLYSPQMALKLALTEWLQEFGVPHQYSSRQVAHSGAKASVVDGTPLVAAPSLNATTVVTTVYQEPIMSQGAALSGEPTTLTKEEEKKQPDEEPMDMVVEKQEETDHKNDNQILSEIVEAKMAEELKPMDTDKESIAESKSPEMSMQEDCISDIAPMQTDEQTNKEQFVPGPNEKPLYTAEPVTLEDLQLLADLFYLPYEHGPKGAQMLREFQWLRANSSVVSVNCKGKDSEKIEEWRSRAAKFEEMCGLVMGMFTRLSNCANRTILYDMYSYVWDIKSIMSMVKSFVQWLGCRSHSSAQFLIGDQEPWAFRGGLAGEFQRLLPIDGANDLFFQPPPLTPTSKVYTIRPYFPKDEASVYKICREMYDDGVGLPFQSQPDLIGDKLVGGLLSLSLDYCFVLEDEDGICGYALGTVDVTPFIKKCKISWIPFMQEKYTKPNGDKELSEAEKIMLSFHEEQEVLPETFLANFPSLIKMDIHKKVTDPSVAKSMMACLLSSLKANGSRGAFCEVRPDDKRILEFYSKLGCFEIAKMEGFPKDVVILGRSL
Assay: OGA biochemical assay (inhibition of FM-GlcNAc hydrolysis, fluorescence)
Settings: FM-GlcNAc substrate
In short: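 Full-length OGA (2 nM) pre-incubated 60 min at room temperature with compound, then FM-GlcNAc (100 uM final) hydrolysed 6 h at room temperature in 200 mM citrate/phosphate pH 7.2 with 0.005% Tween-20. Stopped with carbonate pH 11.0; fluorescein read at ex 485/em 538 nm. IC50 and Hill coefficient from curve fit between no-inhibitor and saturating-standard controls.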

An IC50 (6 h at room temperature, read-out: Enzymatic hOGA, pIC50 (converted)) of 0.0126 µM and an Emax (maximal effect, read-out: Enzymatic Emax (%)) of 99% were found for `Cc1cc(C2CCCN(C(C)c3ccc4sc(C)nc4n3)C2)cc(C)n1` (racemic) [Compound 39] in this work.
